For this test, the target named is T1, human DGAT1 enzyme (Homo sapiens, UniProt O75907).
T1 construct: made in house; host or cells: Sf9 insect cells (microsomes)
T1 sequence (O75907 1-488): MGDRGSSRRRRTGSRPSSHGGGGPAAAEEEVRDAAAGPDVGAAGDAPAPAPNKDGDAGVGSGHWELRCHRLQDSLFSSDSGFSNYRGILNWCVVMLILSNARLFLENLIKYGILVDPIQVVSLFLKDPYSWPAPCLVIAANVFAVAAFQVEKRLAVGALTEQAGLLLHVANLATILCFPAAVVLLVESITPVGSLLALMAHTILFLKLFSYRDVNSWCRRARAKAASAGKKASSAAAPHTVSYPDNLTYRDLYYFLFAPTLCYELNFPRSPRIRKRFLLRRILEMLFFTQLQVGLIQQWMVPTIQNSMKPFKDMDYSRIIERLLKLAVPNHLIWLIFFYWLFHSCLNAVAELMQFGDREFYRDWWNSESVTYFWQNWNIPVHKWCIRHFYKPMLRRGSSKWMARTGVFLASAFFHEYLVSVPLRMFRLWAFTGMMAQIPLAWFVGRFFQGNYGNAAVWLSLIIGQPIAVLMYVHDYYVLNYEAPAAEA
Briefly: in vitro DGAT1 inhibition assay (microsomes, [14C]-palmitoyl-CoA, SPA beads). It is filed as biochemical. As to conditions: human DGAT1 expressed in Sf9 insect cell microsomes, 2 hours at room temperature; read-out: hDGAT IC50. On the procedure: A useful assay to determine the DGAT inhibitory activity of the inventive compounds is described below:
The in vitro assay to identify DGAT1 inhibitors uses human DGAT1 enzyme expressed in Sf9 insect cells prepared as microsomes. The reaction is initiated by the addition of the combined substrates 1,2-dioleoyl-sn-glycerol and [^14C]-palmitoyl-Co A and incubated with test compounds and microsomal membranes for 2 hours at room temperature. The assay is stopped by adding 0.5 mg wheat germ agglutinin beads in assay buffer with 1% Brij-35 and 1% 3-cholamidopropyldimethyl-ammonio-1-propane sulfonate. Plates are sealed with TopSeal and incubated for 18 hours to allow the radioactive triglyceride product to come into proximity with the bead. Plates are read on a TopCount instrument.
Percent inhibition was calculated as the percent of (test compound inhibition minus non-specific binding) relative to (total binding minus non-specific binding). IC50 values were determined by curve fitting the data to a Sigmoidal dose-response in GraphPad Prism utilizing the following equation:
Y=A+(B−A)/(1+10̂((Log IC50−X))),
where A and B are the bottom and top of the curve (highest and lowest inhibition), respectively, and X is the logarithm of concentration.

`O=C(Nc1ccc(N2CCC(=O)N(Cc3ccccc3)CC2)nc1)c1oc(-c2ccccc2)nc1C(F)(F)F` [Compound 157]: the IC50 lay in the range of 101 to 500 nM.
To `O=C(Nc1ccc(N2CCCN(C(=O)C(O)C(F)(F)F)CC2)nc1)c1oc(-c2ccccc2)nc1C(F)(F)F` (centres unmarked) [Compound 181] belongs 11 to 100 nM.
As for `O=C(Nc1ccc(N2CCCN(C(=O)[C@H](O)C3CCCCC3)CC2)nc1)c1oc(-c2ccccc2)nc1C(F)(F)F` [Compound 180], the figure is 11 to 100 nM; as for `O=C(Nc1ccc(N2CCN(C(=O)C(O)c3ccc4c(c3)OCO4)CC2)nc1)c1oc(-c2ccccc2)nc1C(F)(F)F` (centres unmarked) [Compound 176], 11 to 100 nM; as for `O=C(Nc1ccc(N2CCN(C(=O)[C@H](O)c3ccccc3)CC2)nc1)c1oc(-c2ccccc2)nc1C(F)(F)F` [Compound 165], 11 to 100 nM.
For `O=C(Nc1ccc(N2CCC(O)(c3ccccc3)CC2)nc1)c1oc(-c2ccccc2)nc1C(F)(F)F` [Compound 78], the half-inhibitory concentration (IC50) lay in the range of 101 to 500 nM.
To `O=C(Nc1ccc(N2CCN(C(=O)C(O)c3ccc(Cl)cc3)CC2)nc1)c1oc(-c2ccccc2)nc1C(F)(F)F` (centres unmarked) [Compound 168] belongs 11 to 100 nM; to `O=C(Nc1ccc(N2CCC(n3c(=O)[nH]c4ccccc43)CC2)nc1)c1oc(-c2ccccc2)nc1C(F)(F)F` [Compound 72], 101 to 500 nM.
To `O=C(Nc1ccc(N2CCN(Cc3ccccc3)C(=O)C2)nc1)c1oc(-c2ccccc2)nc1C(F)(F)F` [Compound 62] belongs 11 to 100 nM.
`O=C(Nc1ccc(N2CCN(C(=O)C(O)C(F)(F)F)CC2)nc1)c1oc(-c2ccccc2)nc1C(F)(F)F` (centres unmarked) [Compound 164]: the IC50 lay in the range of 11 to 100 nM.
As for `O=C(Nc1ccc(N2CCCN(C(=O)[C@H](O)c3ccc(F)c(F)c3)CC2)nc1)c1oc(-c2ccccc2)nc1C(F)(F)F` [Compound 182], the figure is 11 to 100 nM.
Consider `O=C(Nc1ccc(N2CCC(OCc3ccccc3)CC2)nc1)c1oc(-c2ccccc2)nc1C(F)(F)F` [Compound 153], for which the half-maximal inhibitory concentration (IC50) lay in the range of 11 to 100 nM.
As for `O=C(Nc1ccc(N2CCC(O)(c3ccccc3)CC2)nc1)c1nc(-c2ccccc2)oc1C(F)(F)F` [Compound 82], the figure is 101 to 500 nM.
As for `O=C(Nc1ccc(N2CCCN(C(=O)[C@H](O)c3ccccc3)CC2)nc1)c1oc(-c2ccccc2)nc1C(F)(F)F` [Compound 179], the figure is 11 to 100 nM; as for `O=C(Nc1ccc(N2CCN(C(=O)[C@@H](O)C3CCCCC3)CC2)nc1)c1oc(-c2ccccc2)nc1C(F)(F)F` [Compound 170], 11 to 100 nM; as for `O=C(Nc1ccc(N2CCN(C(=O)C(O)Cc3ccccc3)CC2)nc1)c1oc(-c2ccccc2)nc1C(F)(F)F` (centres unmarked) [Compound 171], 11 to 100 nM.
Consider `O=C(Nc1ccc(N2CCN(C(=O)[C@H](O)C3CCCCC3)CC2)nc1)c1oc(-c2ccccc2)nc1C(F)(F)F` [Compound 169], for which the IC50 fell in the range of 11 to 100 nM.
Regarding `O=C(Nc1ccc(N2CCC(CCc3ccccc3)CC2)nc1)c1oc(-c2ccccc2)nc1C(F)(F)F` [Compound 151], the concentration for half-maximal inhibition (IC50) lay in the range of 101 to 500 nM.
To `O=C(Nc1ccc(N2CCC(C(O)c3ccccc3)CC2)nc1)c1oc(-c2ccccc2)nc1C(F)(F)F` (centres unmarked) [Compound 155] belongs 11 to 100 nM.
As for `O=C(O)CC(O)(C(=O)N1CCN(c2ccc(NC(=O)c3oc(-c4ccccc4)nc3C(F)(F)F)cn2)CC1)C(F)(F)F` (centres unmarked) [Compound 172], the figure is 11 to 100 nM.

One may read the IC50 as the concentration at which inhibition is half-maximal.

The record behind these values is patent US20110224193A1, “INHIBITORS OF DIACYLGLYCEROL ACYLTRANSFERASE” (MERCK SHARP & DOHME CORP, priority 2008, published 2011).
